According to patent publication US20250326933A1, “SOLID COMPOSITION OF INDOCYANINE GREEN AND SODIUM FLUORESCEIN” (ICROM Srl, priority 2021, published 2025):

Experiments:
[1] = Solubility in water evaluated by filtration of the solution on a syringe filter; type: physicochemical
[2] = Stability of the compounds of formula (IA) and (IB) and of their solid composition by HPLC; type: physicochemical; details: for Stability by HPLC as such and after freeze-drying: (IA) with or without iodide
Protocol: The formulations from 13 to 18 and the compounds used for the preparation thereof were analysed with the following analytical method. The analysis confirms that the purity of IA >99.5% injected as such and the stability of the formulation after freeze-drying, evaluated based on the fact that there is no other peak in the chromatogram except for Ia and Ib.
Sample solution: 1.5 mg/ml in methanol. Inject immediately after preparing the solution. The mixtures of formula (IA) and (IB) described in Table 2 were prepared and then appropriately diluted and injected in HPLC to evaluate the profile at T0.
The same mixtures were re-prepared exactly as described in the experimental part, dry frozen and controlled in HPLC after freeze-drying, 7 days later. During these 7 days the samples were stored inside their amber glass vials in a protective atmosphere at room temperature. The freeze-dried products were dissolved in water at the same dilution as the not freeze-dried samples.
The stability of the freeze-dried powders stored in the vials was evaluated using HPLC even after 6 months. The freeze-dried products are stable, even without the presence of sodium iodide, formulation 9.
The reconstituted solution was stable if stored at 4-10° C. for at least 24 hours (formulations 1, 3, 5 and 7).

[3] = aqueous solution; cited from earlier work
[4] = after intravenous administration; cited from earlier work
[5] = freeze-dried, 10 mg/ml in water
[6] = not freeze-dried, 5 mg/ml in water
[7] = not freeze-dried, 10 mg/ml in water

Row | Structure (SMILES) | Filtration on 0.45 μm syringe filter: Pressure ([1]; freeze-dried, 5 mg/ml in water) | Filtration on 0.45 μm syringe filter: ml filtered ([1]; freeze-dried, 5 mg/ml in water) [mL] | Filtration on 0.45 μm syringe filter: Pressure [1, 5] | Filtration on 0.45 μm syringe filter: ml filtered [1, 5] [mL] | Filtration on 0.45 μm syringe filter: Pressure [1, 6] | Filtration on 0.45 μm syringe filter: ml filtered [1, 6] [mL] | Filtration on 0.45 μm syringe filter: Pressure [1, 7] | Filtration on 0.45 μm syringe filter: ml filtered [1, 7] [mL] | Stability by HPLC as such and after freeze-drying [2] | Degradation by freeze-drying (HPLC) ([2]; as such or in mixture with (IB), with or without sodium iodide) | Decomposition when dissolved in water [3] | Time to complete removal by the kidneys [4] [h]
1 | CC1(C)C(/C=C/C=C/C=C/C=C2\N(CCCCS(=O)(=O)[O-])c3ccc4ccccc4c3C2(C)C)=[N+](CCCCS(=O)(=O)[O-])c2ccc3ccccc3c21.[Na+] [069/079] | Low | 10 | Low | 10 | Block | 0 | Block | 0 |  |  |  | 
2 | CC1(C)C(/C=C/C=C/C=C/C=C2\N(CCCCS(=O)(=O)[O-])c3ccc4ccccc4c3C2(C)C)=[N+](CCCCS(=O)(=O)[O-])c2ccc3ccccc3c21.[Na+] [compound of formula (IA), 1H-benz[e]indole, 2-[7-[1,3-dihydro-1,1-dimethyl-3-(4-sulfobutyl)-2H-benz[e]indol-2-ylidene]-1,3,5-heptatrienyl]-1,1-dimethyl-3-(4-sulfobutyl) hydroxide, inner salt, sodium salt] |  |  |  |  |  |  |  |  | stable | does not degrade | non-detectable decomposition for a few hours | 
3 | O=C([O-])c1ccccc1-c1c2ccc(=O)cc-2oc2cc([O-])ccc12.[Na+].[Na+] [compound of formula (IB), sodium fluorescein] |  |  |  |  |  |  |  |  | stable |  |  | 24 to 36
